Results as given in patent publication US20100218416A1, “HYDROXYMETHYLFURFURAL ETHERS FROM SUGARS OR HMF AND BRANCHED ALCOHOLS” (FURANIX TECHNOLOGIES B.V., priority 2007, published 2010).
Read-outs that look alike come from different tables or passages of the source.

How the values were obtained:
[1] = Fuel solubility: miscibility in blends with commercial diesel; format: physicochemical
From the text: Fuel solubility is a primary concern for diesel fuel applications. Not all highly polar oxygenates have good solubility in the current commercial diesel fuels.
The engine is run stationary with regular diesel initially, after which the fuel supply is switched to the 40 vol % tBMF-diesel blend.

[2] = Oxidation stability of blend with additive free diesel fuel (NF en ISO 12205); format: physicochemical; details: 0.1 vol % blend with additive free diesel fuel
Description: Likewise, oxygenated fuel additives, certainly when containing an aldehyde functional group, often reduce the oxidation stability of the base diesel fuel. A 0.1 vol % blend of tBMF with additive free diesel fuel was prepared at an outside laboratory for oxidation stability determination according to NF en ISO 12205 certified methods.

Row | miscibility with commercial diesel ([1]; 5 vol % blend with commercial diesel) | miscibility with commercial diesel ([1]; 25 vol % blend with commercial diesel) | miscibility with commercial diesel ([1]; 40 vol % blend with commercial diesel) | Structure (SMILES) | miscibility with commercial diesel [1] | mixing or flocculation problems [1] | oxidation stability versus reference additive-free diesel [2]
1 | completely miscible | phase separation occurs | phase separation occurs | CCOCc1ccc(C=O)o1 [EMF, ethoxymethylfurfural, reference compound] |  |  | 
2 |  |  |  | CC(C)(C)OCc1ccc(C=O)o1 [tBMF, 5-(tert-Butoxymethyl)furfural] | completely miscible | does not yield any mixing or flocculation problems | same oxidation stability
